Assay results published in PubChem BioAssay (NCI).
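1) Cells in 96-well plates. 2) Compound, 48 h, 5 concentrations. 3) Linear interpolation between surrounding doses. 4) Unreached endpoint = highest concentration. At the GI50, growth is halved. TGI: total growth inhibition.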

Legend:
Assay in all cases: NCI tumour cell line growth inhibition, 48 h
[1] = system: A549 NSCLC
[2] = system: M14 melanoma
[3] = system: SN12C renal
[4] = system: SW-620 colon
[5] = system: MDA-MB-231 breast
[6] = system: OVCAR-5 ovarian
[7] = system: KM12 colon
[8] = system: HCT-116 colon
[9] = system: SF-539 CNS
[10] = system: HL-60(TB) leukemia

SMILES | TGI [1] [µM] | TGI [2] [µM] | TGI [3] [µM] | TGI [4] [µM] | TGI [5] [µM] | TGI [6] [µM] | TGI [7] [µM] | TGI [8] [µM] | TGI [9] [µM] | TGI [10] [µM] | GI50 [5] [µM] | GI50 [9] [µM] | GI50 [1] [µM] | GI50 [2] [µM] | GI50 [3] [µM] | GI50 [4] [µM] | GI50 [6] [µM] | GI50 [7] [µM] | GI50 [8] [µM] | GI50 [10] [µM]
C/C(Cl)=N\OC(=O)Nc1ccc(C)cc1 | 35.6 | 30.9 | 33.7 | 33 | 37.5 | 32.6 | 35.1 | 38.6 | 35.8 |  |  |  |  |  |  |  |  |  |  | 
O=[N+]([O-])c1ccc(NC(=S)N=Nc2c(O)[nH]c3ccc([N+](=O)[O-])cc23)cc1 | 48.1 | 41.9 | > 100 | > 100 | 45 | 68 | 37.6 | 46.3 | > 100 | 73.1 |  |  |  |  |  |  |  |  |  | 
CCc1c(CNc2ccc(C(=O)NC(CC(=O)O)C(=O)O)cc2)ccc2nc(N)nc(N)c12 (stereo not given) | > 1000 | > 1000 | > 1000 | > 1000 | > 1000 | > 1000 | > 1000 | > 1000 | > 1000 |  | > 1000 | 0.285 |  |  |  |  |  |  |  | 
Cc1c(CN2CCN(C)CC2)c(CN2CCN(C)CC2)c(C)n1-c1ccc(Cl)cc1 | 91.1 | 32 | > 100 | > 100 | > 100 | > 100 | > 100 | > 100 |  |  |  |  |  |  |  |  |  |  |  | 
O=C1NC2CCCCC2N=C1CC(=O)c1ccc(Br)cc1 (stereo not given) | > 100 | > 100 | > 100 | > 100 | 35.7 | > 100 | > 100 | > 100 | > 100 | > 100 |  |  |  |  |  |  |  |  |  | 
COc1ccccc1C1Nn2c(nc3ccccc3c2=O)N1c1ccc(C)cc1 (stereo not given) | 19.7 | 26.4 | 21.7 | 18.2 | 18.3 | 26.6 | 60.3 | 16 | 12.1 | 49.1 |  |  |  |  |  |  |  |  |  | 
CC(C)N1CC2CC(CN(C(=O)c3ccccc3)C2)C1 | > 100 | > 100 | > 100 | > 100 |  | > 100 | > 100 |  | > 100 | > 100 |  |  |  |  |  |  |  |  |  | 
COc1cc(CC(C)NC(C)=O)cc(OC)c1 (stereo not given) | > 100 | > 100 | > 100 | > 100 | > 100 | > 100 | > 100 | > 100 | > 100 | > 100 |  |  |  |  |  |  |  |  |  | 
Cc1cc(C)c2c(=O)cc(-c3cccc(F)c3)[nH]c2n1 | > 100 | > 100 | 20.3 |  | 4.17 | > 100 | 13.3 | 0.433 | 4.54 | 0.226 |  |  |  |  |  |  |  |  |  | 
COC(=O)c1ccccc1NC(=O)C(=O)NNC(=O)c1ccncc1 | > 100 | > 100 | > 100 | > 100 |  |  | > 100 | > 100 | > 100 | > 100 |  |  |  |  |  |  |  |  |  | 
COC(=O)C(=O)C(C(=O)C(=O)Nc1cccc(C(C)=O)c1)c1nc2ccccc2[nH]c1=O (stereo not given) | > 100 | > 100 |  | > 100 |  | > 100 | > 100 |  | > 100 | > 100 |  |  |  |  |  |  |  |  |  | 
COc1cc(C(=O)Oc2ccc3c(c2)OCO3)cc(OC)c1OC | > 100 | > 100 | > 100 | > 100 | > 100 | > 100 | > 100 |  | > 100 | > 100 |  |  |  |  |  |  |  |  |  | 
c1cncc(CC2(c3cc4ccccc4[nH]3)OCCO2)c1 | > 100 |  | > 100 | > 100 | > 100 |  | > 100 | > 100 | > 100 | > 100 |  |  |  |  |  |  |  |  |  | 
Cc1ccc2c(c1)-c1c(C#N)c(N)nc(-c3ccc(Cl)cc3)c1CCS2(=O)=O | > 100 | > 100 | > 100 | > 100 | > 100 | > 100 | > 100 | > 100 | 37.1 |  |  |  |  |  |  |  |  |  |  | 
CC[C@H](Nc1nc(C)nc(N)c1C#N)c1nc2cccc(NCc3ccc(C(=O)NO)cc3)c2c(=O)n1-c1ccccc1 | 4.2 | 5.85 | 3.92 | 4.47 | 3.36 | 3.32 | 3.45 | 2.5 | 3.02 |  | 1.4 | 1.59 | 1.92 | 2.28 | 1.65 | 1.74 | 1.51 | 1.81 | 1.01 | 
Cn1c(=O)c2c(nc3n(Cc4ccccc4)c(=O)c(NCCCBr)cn23)n(C)c1=O | > 100 | > 100 | > 100 | > 100 | > 100 | > 100 | > 100 | > 100 |  | > 100 |  |  |  |  |  |  |  |  |  | 
S=C(N/N=C\C(=N/NC(=S)N1CCCCC1)c1ccccc1)N1CCCCC1 | 5.62 | 3.61 | 3.51 | 3.83 |  | 3.33 | 3.98 | 6.53 | 6.7 |  |  |  |  |  |  |  |  |  |  | 
COC(=O)C1CCc2sc3ncnc(Nc4cn[nH]c4C(=O)Nc4ccc(CN5CCN(C)CC5)cc4)c3c21 (stereo not given) |  | 2.14 | > 100 | 1.58 |  |  | 2.63 |  | 1.49 | 3.87 |  | 0.371 |  | 0.708 | 0.345 | 0.354 |  | 0.207 |  | 1.68
C1=C2C3=[N+](CCCCC3)CC2Cc2ccsc21 (stereo not given) | > 100 | > 100 | > 100 | > 100 | > 100 | > 100 | > 100 | > 100 |  | > 100 |  |  |  |  |  |  |  |  |  | 
CCOc1ccc(Nc2nc(N)nc(N)c2N)cc1 | > 100 | > 100 |  | > 100 | > 100 | > 100 | 73.5 | > 100 | 46.3 | > 100 |  |  |  |  |  |  |  |  |  | 
CS(=O)(=O)Nc1ccc2c(c1)N(S(C)(=O)=O)CC2CCl (stereo not given) | > 100 |  | > 100 | > 100 | > 100 | > 100 | > 100 | > 100 | > 100 | > 100 |  |  |  |  |  |  |  |  |  | 
